US8969586B2 (Bristol-Myers Squibb Company, priority 2011, dated 2015)

Target: Human CYP17 (Homo sapiens (Human), UniProt P05093)
Assay: CYP17 Total SPA Assay
Assay type: biochemical
Settings: microsomes from HEK2 cells stably transfected with CYP17; 3H-Pregnenolone 1 uM, NADPH 2 mM; 45 minutes at room temperature
Experimental: The assays were performed in U-bottom 384-well optiplates. The final assay volume was 15 μl prepared from 7.5 μl additions of microsomes (prepared as a high-speed pellet from homogenized HEK2 cells stably transfected with CYP17), substrates (3H-Pregnenolone and NADPH) and test compounds in assay buffer (50 mM Potassium phosphate pH 7.2, 10% glycerol). The reaction was initiated by the combination of the microsomes and substrates in wells containing compound. The reaction was incubated at room temperature for 45 minutes and terminated by adding 7.5 μl of 0.2N HCl to each well. Following an incubation period of 10 minutes, anti-DHEA-coated SPA beads were added to the terminated reaction. The plate was sealed and incubated overnight with shaking at 4° C. The beads were allowed to settle in the plate for 1 hour and the plate read on a TOPCOUNT® (Perkin-Elmer) plate reader.
Inhibition data were calculated by comparison to no enzyme control reactions for 100% inhibition and vehicle-only reactions for 0% inhibition. The final concentration of reagents in the assays are NADPH, 2 mM; 3H-Pregnenolone, 1 uM; microsomes, 1.25 ug/ml; Anti-DHEA-SPA beads (0.125 mg/well) in 0.5% Triton X-100 and DMSO, 0.05%. Dose response curves were generated to determine the concentration required inhibiting 50% of enzyme activity (IC50). Compounds were dissolved at 10 mM in dimethylsulfoxide (DMSO) and evaluated at eleven concentrations, each in duplicate. IC50 values were derived by non-linear regression analysis.
Table 5 below lists the IC50 values for the following examples of this invention measured in the Total CYP17 SPA Assay hereinabove.

Sequence of Human CYP17 (P05093 whole entry): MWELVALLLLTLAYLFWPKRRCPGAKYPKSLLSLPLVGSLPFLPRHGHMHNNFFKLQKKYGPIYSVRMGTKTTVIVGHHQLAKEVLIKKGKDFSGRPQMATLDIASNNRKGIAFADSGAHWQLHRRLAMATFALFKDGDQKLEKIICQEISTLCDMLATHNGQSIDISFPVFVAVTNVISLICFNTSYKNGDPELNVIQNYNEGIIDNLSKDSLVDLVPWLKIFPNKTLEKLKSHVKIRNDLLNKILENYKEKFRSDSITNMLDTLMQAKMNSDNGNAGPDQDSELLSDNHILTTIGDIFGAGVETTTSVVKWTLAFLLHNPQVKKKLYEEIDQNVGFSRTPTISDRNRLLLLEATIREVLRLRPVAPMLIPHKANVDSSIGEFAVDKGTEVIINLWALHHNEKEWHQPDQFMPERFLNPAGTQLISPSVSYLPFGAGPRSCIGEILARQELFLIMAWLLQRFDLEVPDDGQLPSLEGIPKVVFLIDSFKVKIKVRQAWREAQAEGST

IC50 [nM]	Structure (SMILES)
4	Fc1ccc(-c2csc3c(-c4cncnc4C4CC4)ccnc23)cc1 [Example 99, 7-(4-Cyclopropylpyrimidin-5-yl)-3-(4-fluorophenyl)thieno[3,2-b]pyridine]
4	Nc1ncncc1-c1ccnc2c(-c3ccc(F)cc3Cl)csc12 [Example 103, 5-(3-(2-Chloro-4-fluorophenyl)thieno[3,2-b]pyridin-7-yl)pyrimidin-4-amine]
56	Fc1ccc(-c2csc3c(-c4cncc5ccccc45)cccc23)cc1 [Example 109, 4-(3-(4-Fluorophenyl)benzo[b]thiophen-7-yl)isoquinoline]
611	Cc1ccncc1-c1cccc2c(OCc3ccc4ccccc4c3)noc12 [Example 124, 7-(4-methylpyridin-3-yl)-3-(naphthalen-2-ylmethoxy)benzo [d]isoxazole]
251	Cc1ccncc1-c1cccc2c(OCc3ccc(Cl)cc3)noc12 [Example 128, 3-(4-chlorobenzyloxy)-7-(4-methylpyridin-3-yl)benzo[d] isoxazole]
79	COc1ccc(COc2noc3c(-c4cnccc4C)cccc23)cc1 [Example 129, 3-(4-methoxybenzyloxy)-7-(4-methylpyridin-3-yl)benzo[d] isoxazole]

Continued, compound first:

Structure (SMILES)	IC50 [nM]
Cc1ccncc1-c1cccc2c(-c3ccccc3)noc12 [Example 1, 7-(4-Methylpyridin-3-yl)-3-phenylbenzo[d]isoxazole]	1.1
Cc1ncncc1-c1cccc2c(-c3ccccc3)noc12 [Example 4, 7-(4-Methylpyrimidin-5-yl)-3-phenylbenzo[d]isoxazole]	357
Cc1ccncc1-c1cccc2c(-c3ccc(F)cc3)noc12 [Example 6, 3-(4-Fluorophenyl)-7-(4-methylpyridin-3-yl)benzo[d]isoxazole]	3.2
Fc1ccc(-c2noc3c(-c4cncn5cccc45)cccc23)cc1 [Example 14, 3-(4-Fluorophenyl)-7-(pyrrolo[1,2-c]pyrimidin-4-yl)benzo[d]isoxazole]	192
FC(F)(F)COc1ncncc1-c1cccc2c(-c3cnccn3)noc12 [Example 26, 3-(Pyrazin-2-yl)-7-(4-(2,2,2-trifluoroethoxy)pyrimidin-5-yl)benzo[d]isoxazole]	65
Clc1ccncc1-c1cccc2c(C3CC3)noc12 [Example 30, 7-(4-Chloropyridin-3-yl)-3-cyclopropylbenzo[d]isoxazole]	48
Clc1ccccc1-c1noc2c(-c3cncnc3-n3cncn3)cccc12 [Example 52, 7-(4-(1H-1,2,4-Triazol-1-yl)pyrimidin-5-yl)-3-(2-chlorophenyl)benzo[d]isoxazole]	42
Clc1ccccc1-c1noc2c(-c3cncnc3-n3nccn3)cccc12 [Example 57, 7-(4-(2H-1,2,3-Triazol-2-yl)pyrimidin-5-yl)-3-(2-chlorophenyl)benzo[d]isoxazole]	524
Cc1ccncc1-c1cccc2c(OCCN(C)C)noc12 [Example 68]	524
Cc1ccncc1-c1ccnc2c(-c3ccc(F)cc3)noc12 [Example 86, 3-(4-Fluorophenyl)-7-(4-methylpyridin-3-yl)isoxazolo[4,5-b]pyridine]	3.9
Cc1ccncc1-c1ccnc2c(-c3nccs3)csc12 [Example 94, 7-(4-Methylpyridin-3-yl)-3-(thiazol-2-yl)thieno[3,2-b]pyridine]	76
Cc1ncncc1-c1ccnc2c(-c3ccc(F)cc3)csc12 [Example 98, 3-(4-Fluorophenyl)-7-(4-methylpyrimidin-5-yl)thieno[3,2-b]pyridine]	8
